The results in this text go back to patent publication EP4563579A1, “MACROCYCLIC EGFR INHIBITOR, AND PREPARATION METHOD THEREFOR AND PHARMACEUTICAL USE THEREOF” (Abbisko Therapeutics Co., Ltd., priority 2022, dated 2024).

The subject of data set [1] is A431 WT. The data set can be described thus: Cell proliferation assay (CellTiter-Glo), A431 WT. It is filed as cell-based. As to conditions: Homo sapiens, A-431; A431 WT cells, 72 hour incubation, CTG readout. The method, boiled down:
(§1)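 Cells seeded overnight, then exposed 72 h at 37 °C, 5% CO2 to nine 3.16-fold dilutions (top final 10 µM, 0.1% DMSO), triplicate wells. Viability read by CellTiter-Glo luminescence, with a T0 plate read at dosing; IC50 (nM) by non-linear sigmoidal regression.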
Background: Cellular ATP, detected with luciferase, serves as a proxy for viable cell number.

The subject of data set [2] is Ba/F3 EGFR-L858R-T790M-C797S (LTC). The data set can be described thus: Cell proliferation assay (CellTiter-Glo), Ba/F3 LTC. The data set is classed as cell-based. The conditions noted are these: Mus musculus, BaF3; Ba/F3 EGFR-L858R-T790M-C797S cells, 72 hour incubation, CTG readout. A digest of the protocol:
as §1

Data set [3] deals with Ba/F3 EGFR-DEL19-T790M-C797S (DTC). The data set can be described thus: Cell proliferation assay (CellTiter-Glo), Ba/F3 DTC. It is filed as cell-based. The conditions noted are these: Ba/F3 EGFR-DEL19-T790M-C797S cells, 72 hour incubation, CTG readout; read-out: IC50 BaF3 DTC. A digest of the protocol: as §1
The subject of data set [4] is Ba/F3 EGFR-L858R-C797S (LC). The data set can be described thus: Cell proliferation assay (CellTiter-Glo), Ba/F3 LC. As to conditions: Mus musculus, BaF3; Ba/F3 EGFR-L858R-C797S cells, 72 hour incubation, CTG readout. The data set is classed as cell-based. The method, boiled down:
as §1

Data set [5] has as its system Ba/F3 EGFR-DEL19-C797S (DC). The data set is described as follows: Cell proliferation assay (CellTiter-Glo), Ba/F3 DC. It is filed as cell-based. The conditions noted are these: Mus musculus, BaF3; Ba/F3 EGFR-DEL19-C797S cells, 72 hour incubation, CTG readout. The method, boiled down: as §1
The nature of data set [6]: Pharmacokinetic experiment in mice. The data set is classed as in vivo. The conditions noted are these: ICR mice; for AUC(0-t) / Cmax / half-life: male, mouse, single oral administration (PO), 10 mg/kg, plasma. From the text: The purpose of this trial is to study the pharmacokinetic behavior of some compounds of the present invention, and the administration method is: Single oral administration (PO) to ICR mice.
The compounds used in this trial are from the compounds in the specific examples of the present invention and the listed positive compounds.
ICR mice male N=9 original source: Shanghai Sippr-Bk Lab Animal Co., Ltd.
The compounds are weighed and dissolved in the corresponding solution (10% PG + 10% Solutol® + 80% pH3 citrate buffer). The mixture is then shaken well and sonicated to prepare a 1 mg/mL stock solution. Nine mice are orally administered at a dose of 10 mg/kg (or IV 2 mg/kg) after an overnight fast.
About 90 µL of blood is collected via the submandibular vein per time point, heparin sodium anticoagulant is added, the sample is placed on ice after collection, and plasma is centrifuged within 1 hour (centrifugation conditions: 8,000 rpm, 6 minutes, 2-8°C). The blood collection timepoints are 0, 0.25, 0.5, 1, 2, 4, 6, 8 and 24 h. The samples are stored in a -20°C refrigerator.
The plasma sample is 40 µL, 160 µL of ice-cold acetonitrile containing internal standard is added, vortexed for 3 minutes, and centrifuged at 11,000 rpm for 5 minutes. 100 µL of the supernatant is taken and added to 100 µL of water, 5 µL of the sample is taken and injected into LC/MS/MS for analysis.

As usually defined, the IC50 is the point on the concentration scale where inhibition reaches its midpoint. A word on the AUC(0-t): it is the area under the concentration-time curve up to a stated or last time point. A lower AUC(0-t) goes with low exposure. A word on the Cmax: it is the peak of the concentration-time curve. The half-life is the time needed for the level to fall by half in the phase considered. Low readings indicate rapid decline, high ones slow decline. As to `Cn1ncc2c1OCC1(CCCC1)Cn1nc(N3CC[C@H](CS(C)(=O)=O)C3)c3cnc(cc31)Nc1ccnc-2n1` [Example 34, (S)-1'methyl-3'-(3-((methylsulfonyl)methyl)pyrrolidin-1-yl)spiro(cyclopentane-1,6 '-8-oxa-3-aza-4(6,1)-pyrazolo[4,3-c]pyridina-2(2,4)-pyrimidina-1(4,5)-pyrazolacyclooctaphane)], the IC50 in data set [1] amounted to 375 nM; in data set [2] it was 1.4 nM; in data set [3], 1.6 nM; in data set [4], 2.7 nM; in data set [5], 0.7 nM. Besides, in data set [6], the AUC(0-t) came out at 2390 ng·h/mL. The Cmax in data set [6] was 694 ng/mL. Besides, the half-life in data set [6] was 4.7 h.
With `CCS(=O)(=O)C[C@H]1CCN(c2nn3c4cc(ncc24)Nc2ccnc(n2)-c2cnn(C)c2OCC2(CCCC2)C3)C1` [Example 35, (S)-3'-(3-((ethylsulfonyl)methyl)pyrrolidin-1-yl)-1'-met hylspiro(cyclopentane-1,6'-8-oxa-3-aza-4(6,1)-pyrazolo [4,3-c]pyridina-2(2,4)-pyrimidina-1(4,5)-pyrazolacyclooctaphane)], the 50% inhibitory concentration (IC50) in data set [1] amounted to 345 nM; in data set [2] it was 1 nM; in data set [3], 0.7 nM; in data set [4] it was 2.2 nM; in data set [5], 0.9 nM. The “Oral F” value in data set [6] (PO 10 mg/kg (IV 2 mg/kg)) amounted to 81.5%. The same compound gave an AUC(0-t) in data set [6] of 5570 ng·h/mL. The compound also showed a Cmax in data set [6] of 1500 ng/mL. Further, the half-life in data set [6] is 2.6 h.
Take `CCS(=O)(=O)C[C@H]1CCN(c2nn3c4cc(ncc24)Nc2ccnc(n2)-c2cnn(C)c2OCC2(CCCCC2)C3)C1` [Example 37, (S)-1'-methyl-3'-(3-((ethylsulfonyl)methyl)pyrrolidin-1-yl)spiro(cyclohexane-1,6'-8-oxa-3-aza-4(6,1)-pyrazolo [4,3-c]pyridina-2(2,4)-pyrimidina-1(4,5)-pyrazolacyclooctaphane)]: the IC50 was 554 nM in data set [1]; 6.4 nM in data set [2]; 3.2 nM in data set [3]; 15.8 nM in data set [4]; 6.1 nM in data set [5]. In data set [6], this compound showed an AUC(0-t) of 10100 ng·h/mL. This compound showed a Cmax in data set [6] of 2070 ng/mL. Further, the half-life in data set [6] was 3.1 h.
On to `CC(C)S(=O)(=O)C[C@H]1CCN(c2nn3c4cc(ncc24)Nc2ccnc(n2)-c2cnn(C)c2OCC2(CCCC2)C3)C1` [Example 39, (S)-3'-(3-((isopropylsulfonyl)methyl)pyrrolidin-1-yl)-1' -methylspiro(cyclopentane-1,6'-8-oxa-3-aza-4(6,1)-pyrazolo[4,3-c]pyridina-2(2,4)-pyrimidina-1(4,5)-pyrazolacyclooctaphane)], for which the IC50 in data set [1] amounted to 446 nM; in data set [2], 0.8 nM; in data set [3] it was 1.5 nM; in data set [4], 2.1 nM; in data set [5] it was 2.3 nM. The AUC(0-t) in data set [6] worked out at 6080 ng·h/mL. In addition, the highest level in data set [6] (Cmax) was 1560 ng/mL. The compound further showed a half-life in data set [6] of 3 h.
As for `Cn1ncc2c1OCC1(CCCCC1)Cn1nc(N3CC[C@H](CS(=O)(=O)C4CC4)C3)c3cnc(cc31)Nc1ccnc-2n1` [Example 41, (S)-3'-(3-((cyclopropylsulfonyl)methyl)pyrrolidin-1-yl)-1'-methylspiro(cyclohexane-1,6'-8-oxa-3-aza-4(6,1)-pyrazolo[4,3-c]pyridina-2(2,4) -pyrimidina-1(4,5)-pyrazolacyclooctaphane)], the IC50 in data set [1] came to 564 nM; in data set [2], 3.1 nM; in data set [3] it was 5.2 nM; in data set [4], 12.9 nM; in data set [5] it was 15.9 nM. This compound showed an area under the curve AUC(0-t) in data set [6] of 7110 ng·h/mL. The compound further yielded a Cmax in data set [6] of 1920 ng/mL. In data set [6], this compound gave a half-life of 2.3 h.
Take `CCCS(=O)(=O)C[C@H]1CCN(c2nn3c4cc(ncc24)Nc2ccnc(n2)-c2cnn(C)c2OCC2(CCCC2)C3)C1` [Example 42, (S)-3'-(3-((propylsulfonyl)methyl)pyrrolidin-1-yl)-1'-methylspiro(cyclopentane-1 ,6'-8-oxa-3-aza-4(6,1)-pyrazolo[4,3-c]pyridina-2(2,4)-pyrimidina-1(4,5)-pyrazolacyclooctaphane)]: the IC50 in data set [1] was determined as 593 nM; in data set [2], 1.2 nM; in data set [3], 2.3 nM; in data set [4], 1.9 nM; in data set [5], 3.5 nM. In data set [6], the AUC(0-t) is 4290 ng·h/mL. This compound registered a Cmax in data set [6] of 1060 ng/mL. Further, in data set [6], the half-life was 3 h.
Turning to `COC(=O)N[C@@H]1CCN(c2nn3c4cc(ncc24)Nc2ccnc(n2)-c2cnn(C)c2OCC2(CCCC2)C3)C1` [Example 51, Methyl (R)-(1-(1'-methylspiro(cyclopentane-1,6'-8-oxa-3-aza-4 (6,1)-pyrazolo[4,3-c]pyridina-2(2,4)-pyrimidina-1(4,5)-pyrazolacyclooctaphane)-3'-yl)pyrrolidin-3-yl)carbamate], the IC50 in data set [1] came to 424 nM; in data set [2] it was 9 nM; in data set [3], 10.1 nM; in data set [4] it was 17.6 nM; in data set [5], 15 nM. Besides, in data set [6], the area under the curve AUC(0-t) is 2690 ng·h/mL. The Cmax in data set [6] amounted to 596 ng/mL. In data set [6], this compound had a half-life of 2.8 h.
In the case of `Cn1ncc2c1OCC1(CCCC1)Cn1nc(N3CC[C@H](NC(=O)C4CC4)C3)c3cnc(cc31)Nc1ccnc-2n1` [Example 54, (S)-N-(1-(1'-methylspiro(cyclopentane-1,6'-8-oxa-3-aza-4(6,1)-pyrazolo[4,3-c]pyridina-2(2,4)-pyrimidina-1(4,5) -pyrazolacyclooctaphane)-3' -yl)pyrrolidin-3-yl)cyclopropanecarboxamide], the IC50 was 654 nM in data set [1]; 12 nM in data set [2]; 8.7 nM in data set [3]; 31.6 nM in data set [4]; 12.1 nM in data set [5]. In data set [6], the AUC(0-t) was determined as 1730 ng·h/mL. This compound also displayed a Cmax in data set [6] of 412 ng/mL. The half-life in data set [6] is 1.3 h.
Take `C[C@H]1CCOc2c(cnn2C)-c2nccc(n2)Nc2cc3c(cn2)c(-c2ccc(CN4CCN(C)CC4)n2C)nn31` [Positive Compoun d, reference compound]: the IC50 was found to be 450 nM in data set [1]; 8 nM in data set [2]; 4.2 nM in data set [3]; 11.5 nM in data set [4]; 4.9 nM in data set [5]. In data set [6], the AUC(0-t) was determined as 204 ng·h/mL. The same compound gave a Cmax in data set [6] of 32.7 ng/mL. In addition, in data set [6], the half-life is 4.8 h.
